Test results as given in publication doi:10.1101/2022.05.23.493001v4 (biorxiv, 2022).

Test system: STING in THP-1 cells (endogenous)
Test: cells
Settings: Homo sapiens, THP-1, 6 h, read-out: EC50 IFN-β THP-1

For `CSc1c(Cl)ccc2c(=O)c3ccc(C(C)(C)C)cc3n(CC(=O)O)c12` [SNX281], the EC50 was 6.6 µM.
